Source: the Deep4Chem optical property database
Where “and” joins values, the source holds several entries; their conditions need not be identical. Identical values can stand only once. Each block holds one molecule with its values, some of them ahead of it.

Test: solvent given as SMILES

Structure (SMILES): c1ccc(C2(c3ccccc3)c3ccccc3N(c3ccc(-c4nc([C@]56CC7CC(C[C@@H](C7)C5)C6)nc([C@]56C[C@H]7C[C@@H](C[C@H](C7)C5)C6)n4)cc3)c3ccccc32)cc1
absorption maximum (in Cc1ccccc1): 367.02 nm

absorption maximum (in CO): 450 nm
Structure (SMILES): C1=CN2C[n+]3cccc(OCc4ccccc4)c3N=C2C(OCc2ccccc2)=C1

Structure (SMILES): CC(=O)c1nc(-c2ccc(N(c3ccccc3)c3ccccc3)cc2)oc1C
absorption maximum (in CC#N): 332 nm
absorption maximum (in CCCCCC): 324 nm
absorption maximum (in CCO): 333 nm
absorption maximum (in CCOC(C)=O): 326 nm
absorption maximum (in CCOCC): 326 nm
absorption maximum (in ClCCl): 328 nm

absorption maximum (in C1CCCCC1): 484 nm
absorption maximum (in CC#N): 510 nm
absorption maximum (in CCO): 509 nm
absorption maximum (in c1ccccc1): 507 nm
Structure (SMILES): CN(C)c1ccc2c(c1)C(=O)c1ccccc1-2

absorption maximum (in ClC(Cl)Cl): 382 nm
Structure (SMILES): CC(C)(C)NC(=O)c1c([Si](C)(C)C)cc2ccc3cccc4ccc1c2c34

absorption maximum (in ClCCl): 393 nm
Structure (SMILES): CC(C)(C)c1ccc(-c2c3c(c(-c4ccc(C(C)(C)C)cc4)c4cc5ccccc5cc24)Cc2c(c(-c4ccc(C(C)(C)C)cc4)c4cc5ccccc5cc4c2-c2ccc(C(C)(C)C)cc2)C3)cc1

absorption maximum (in ClC(Cl)Cl): 482 nm
Structure (SMILES): N#CC1=CC(Br)=CC(C#N)=P1(c1ccccc1)c1ccccc1

Structure (SMILES): N#C/C(=C\c1cn(-c2ccccc2)nc1-c1ccccc1)c1nc2ccccc2s1
absorption maximum (in C1CCOC1): 381 nm
absorption maximum (in C1COCCO1): 381 nm
absorption maximum (in CCO): 380 nm
absorption maximum (in CCOC(C)=O): 380 nm
absorption maximum (in CN(C)C=O): 388 nm
absorption maximum (in CO): 377 nm
absorption maximum (in CS(C)=O): 382 nm
absorption maximum (in Cc1ccccc1): 387 nm
absorption maximum (in ClC(Cl)Cl): 383 nm
absorption maximum (in ClCCl): 380 nm

absorption maximum (in CC#N): 742 nm
absorption maximum (in CCO): 728 nm
absorption maximum (in CO): 730 nm
absorption maximum (in ClC(Cl)Cl): 746 nm
Structure (SMILES): C[N+]1=C(/C=C/C2=C3Oc4c(cc5c6c4CCCN6CCC5)C(c4ccccc4C(=O)O)=C3CCC2)C(C)(C)c2c1ccc1ccccc21

absorption maximum (in C1CCOC1): 371 nm
Structure (SMILES): c1cc2ccc1-c1ccc(cc1)-c1sc(c3c1OCCO3)-c1ccc(cc1)-c1ccc(cc1)-c1sc(c3c1OCCO3)-c1ccc(cc1)-c1ccc(cc1)-c1sc-2c2c1OCCO2

Structure (SMILES): c1ccc2c(c1)c1ccccc1n2-c1ccc(-c2nnc(-c3ccc(-n4c5ccccc5c5ccccc54)cc3)o2)cc1
absorption maximum (in Cc1ccccc1): 343 nm

absorption maximum (in ClCCl): 322 nm
Structure (SMILES): CCOC(=O)c1c(-c2c(Cl)c3ccccc3oc2=O)nn(-c2ccc(Br)cc2)c1C(=O)OCC

absorption maximum (in CCO): 430 nm
Structure (SMILES): CCOC(=O)c1cc(C(=O)OCC)c2ccc(N(C)C)cc2n1

absorption maximum (in CO): 568 nm
Structure (SMILES): CCN(C)c1ccc(C2=C3C(C)=CC(/C=C/c4ccc(OCCCN=[N+]=[N-])cc4)=[N+]3[B-](F)(F)n3c(C)cc(C)c32)cc1

Structure (SMILES): N#Cc1c[nH]c2ccccc12
absorption maximum (in C1COCCO1): 277.3 nm
absorption maximum (in CC#N): 276.25 nm

absorption maximum (in CO): 500 nm
Structure (SMILES): CCN(CC)c1ccc(C2=C3C(C)=CC(C)=[N+]3[B-](F)(F)n3c(C)cc(C)c32)cc1

absorption maximum (in ClCCl): 417 nm
Structure (SMILES): CCCCN(CCCC)c1ccc(C#Cc2cc(C#Cc3ccc([N+](=O)[O-])cc3)c(C#Cc3ccc([N+](=O)[O-])cc3)cc2C#Cc2ccc(N(CCCC)CCCC)cc2)cc1

absorption maximum (in ClCCl): 532 nm
Structure (SMILES): CC1=C(c2ccccc2)C(C)=[N+]2C1=C(c1c(-c3ccccn3)nc3ccccn13)c1c(C)cc(C)n1[B-]2(F)F

Structure (SMILES): c1ccc(-c2nc(-c3ccccc3)nc(-c3ccc(-n4c5ccccc5c5cc(-c6ccc7sc8ccccc8c7c6)ccc54)cc3)n2)cc1
absorption maximum (in Cc1ccccc1): 370 nm

Structure (SMILES): N#CC(C#N)=C(/C=C/c1cn(-c2ccccc2)nc1-c1ccccc1)c1ccccc1
absorption maximum (in C1CCOC1): 402 nm
absorption maximum (in C1COCCO1): 399 nm
absorption maximum (in CCO): 402 nm
absorption maximum (in CCOC(C)=O): 399 nm
absorption maximum (in CN(C)C=O): 405 nm
absorption maximum (in CO): 397 nm
absorption maximum (in CS(C)=O): 409 nm
absorption maximum (in Cc1ccccc1): 405 nm
absorption maximum (in ClC(Cl)Cl): 406 nm
absorption maximum (in ClCCl): 403 nm

Structure (SMILES): CCC1(CC)c2cc(B(c3c(C)cc(C)cc3C)c3c(C)cc(C)cc3C)ccc2-c2ccc(N(c3ccccc3)c3ccccc3)cc21
absorption maximum (in C1CCOC1): 400 nm
absorption maximum (in CC#N): 394 nm
absorption maximum (in CC(C)=O): 398 nm
absorption maximum (in CCCCCC): 401 nm
absorption maximum (in CN(C)C=O): 396 nm
absorption maximum (in Cc1ccccc1): 403 nm
absorption maximum (in ClC(Cl)Cl): 402 nm

Structure (SMILES): CCCC1=Cc2nc1ccc1[nH]c(cc1CCOC)c1nc(ccc3[nH]c2cc3CCC)C(CCOC)=C1
absorption maximum (in Cc1ccccc1): 638 nm

absorption maximum (in CCO): 394 nm
absorption maximum (in ClCCl): 397 nm
Structure (SMILES): c1ccc2c(-c3cncnc3)c3ccccc3c(-c3cncnc3)c2c1

Structure (SMILES): N#Cc1nc2c3ccc(-n4c5ccccc5c5ccccc54)cc3c3cc(-n4c5ccccc5c5ccccc54)ccc3c2nc1C#N
absorption maximum (in Cc1ccccc1): 442 nm

absorption maximum (in ClCCl): 381 nm
Structure (SMILES): CCB1c2ccccc2Nc2ccccc21

absorption maximum (in CS(C)=O): 660 nm
Structure (SMILES): COc1ccc(-c2c3nc(c(-c4ccc(OC)cc4)c4ccc([nH]4)c(-c4ccc(OC)cc4)c4nc(c(-c5ccc(OC)cc5)c5ccc2[nH]5)C=C4N2CCOCC2)C=C3)cc1

absorption maximum (in ClCCl): 543 nm
Structure (SMILES): C1=CC2=CC=CC3C=c4c(cc5cccc6cccc4c65)C(=C1)C23 (stereo unspecified)

absorption maximum (in CC#N): 365 nm and 334 nm
Structure (SMILES): Cn1c(-c2ccc(-c3nc(-c4ccccc4)c(-c4ccccc4)n3C)cc2)nc(-c2ccccc2)c1-c1ccccc1

Structure (SMILES): O=[N+]([O-])c1ccc(NCCNCc2c3ccccc3cc3ccccc23)c([N+](=O)[O-])c1
absorption maximum (in C1CCCCC1): 368 nm
absorption maximum (in C1CCOC1): 349 nm
absorption maximum (in CC#N): 364 nm
absorption maximum (in CC(C)=O): 364 nm
absorption maximum (in CCO): 364 nm
absorption maximum (in CN(C)C=O): 363 nm
absorption maximum (in CO): 348 nm
absorption maximum (in ClC(Cl)Cl): 350 nm

absorption maximum (in CCO): 391 nm
absorption maximum (in ClCCl): 394 nm
Structure (SMILES): N#Cc1cnc(-c2c3ccccc3c(-c3ncc(C#N)cn3)c3ccccc23)nc1

absorption maximum (in CC#N): 353 nm
absorption maximum (in ClCCl): 355 nm
Structure (SMILES): Cc1cc(O)c(C(=O)/C=C/c2ccccc2Cl)c(=O)o1

absorption maximum (in C1COCCO1): 339 nm
absorption maximum (in CC#N): 338 nm
absorption maximum (in CO): 338 nm
absorption maximum (in ClCCl): 336 nm
Structure (SMILES): CN(C)c1nc(N)c2nc(C#N)n(Cc3ccccc3)c2n1

Structure (SMILES): CC(C)[Si]1(C(C)C)c2cc(C#N)ccc2-c2ccc(N(c3ccccc3)c3ccccc3)cc21
absorption maximum (in C1CCCCC1): 391 nm
absorption maximum (in CC#N): 381 nm
absorption maximum (in CCO): 385 nm
absorption maximum (in CCOCC): 383 nm
absorption maximum (in CS(C)=O): 387 nm
absorption maximum (in ClCCl): 388 nm
absorption maximum (in c1ccccc1): 389 nm

absorption maximum (in C1COCCO1): 430 nm
absorption maximum (in CC#N): 433 nm
absorption maximum (in ClCCl): 436 nm
Structure (SMILES): Cc1ccc2nc(/C=C/c3ccc(N(C)C)cc3)c(-c3ccccc3)nc2c1

absorption maximum (in CC#N): 408 nm
Structure (SMILES): CCOC(=O)c1c2c3c(ccc(Cl)c3c3cc4ccccc4cc13)N(C)C2=O

absorption maximum (in C1CCOC1): 333 nm
Structure (SMILES): c1ccc(-c2nc(-c3ccc(-c4cncc5ccccc45)cc3)[nH]c2-c2ccccc2)cc1

absorption maximum (in ClCCl): 340 nm
Structure (SMILES): CC(C)(C)c1cc(-c2ccc(-c3cccs3)s2)c2c(c1)c1cc(C(C)(C)C)cc(-c3ccc(-c4cccs4)s3)c1n2-c1ccc(-c2cccs2)s1

Structure (SMILES): FC(F)(F)c1ccc(-c2c3cccc4c5cccc6c(-c7ccc(C(F)(F)F)cc7)c7cccc8c9cccc2c9c(c34)c(c65)c78)cc1
absorption maximum (in Cc1ccccc1): 683 nm

absorption maximum (in ClCCl): 321 nm
Structure (SMILES): Cc1ccc(O)c(-c2nc(C)c3n2CCCC3)c1
